Key:
Experiment in all cases: relative viability (nuclei count vs DMSO), 5 days (fraction); higher = more cells survive
[1] = compound: C[C@@]1(C(=O)Nc2ccc(F)nc2)CCCN1c1nc(Nc2cc(C3CC3)n[nH]2)c2cccn2n1 + CS(=O)(=O)CCNCc1ccc(-c2ccc3ncnc(Nc4ccc(OCc5cccc(F)c5)c(Cl)c4)c3c2)o1 [Lapatinib] (partner 2 µM)
Outline: (§1)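 Five library-drug doses in √10 steps were combined with a fixed anchor-drug dose, or a single drug was given alone, by pin tool to lung cancer cell lines in 1536-well plates the day after seeding. Nuclei were stained and counted after 5 days. Relative viability is the nuclei count in treated wells over that in vehicle wells, taken as the median of duplicate plates.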

Motesanib + Lapatinib = compound: CC1(C)CNc2cc(NC(=O)c3cccnc3NCc3ccncc3)ccc21 [Motesanib] + CS(=O)(=O)CCNCc1ccc(-c2ccc3ncnc(Nc4ccc(OCc5cccc(F)c5)c(Cl)c4)c3c2)o1 [Lapatinib] (partner 2 µM)
Outline: as §1

[2] = compound: C[C@@]1(C(=O)Nc2ccc(F)nc2)CCCN1c1nc(Nc2cc(C3CC3)n[nH]2)c2cccn2n1 + Cc1nc(NC(=O)N2CCC[C@H]2C(N)=O)sc1-c1ccnc(C(C)(C)C(F)(F)F)c1 [Alpelisib] (partner 2 µM)
Outline: as §1

Motesanib + Pictilisib = compound: CC1(C)CNc2cc(NC(=O)c3cccnc3NCc3ccncc3)ccc21 [Motesanib] + CS(=O)(=O)N1CCN(Cc2cc3nc(-c4cccc5[nH]ncc45)nc(N4CCOCC4)c3s2)CC1 [Pictilisib] (partner 1 µM)
Outline: as §1

Row | Cell Line | relative viability ([1]; first compound 0.04 µM) | relative viability ([1]; first compound 0.1265 µM) | relative viability ([1]; first compound 0.4 µM) | relative viability ([1]; first compound 1.265 µM) | relative viability (Motesanib + Lapatinib; first compound 0.01 µM) | relative viability (Motesanib + Lapatinib; first compound 0.03162 µM) | relative viability (Motesanib + Lapatinib; first compound 0.1 µM) | relative viability (Motesanib + Lapatinib; first compound 0.3162 µM) | relative viability (Motesanib + Lapatinib; first compound 1 µM) | relative viability ([2]; first compound 0.04 µM) | relative viability ([2]; first compound 0.1265 µM) | relative viability ([2]; first compound 0.4 µM) | relative viability ([2]; first compound 1.265 µM) | relative viability (Motesanib + Pictilisib; first compound 0.01 µM) | relative viability (Motesanib + Pictilisib; first compound 0.03162 µM) | relative viability (Motesanib + Pictilisib; first compound 0.1 µM) | relative viability (Motesanib + Pictilisib; first compound 0.3162 µM) | relative viability (Motesanib + Pictilisib; first compound 1 µM)
1 | HCC-44 | 0.894 | 0.794 | 0.647 | 0.688 | 0.989 | 0.952 | 1.02 | 1.04 | 1.03 | 0.666 | 0.698 | 0.552 | 0.783 | 0.672 | 0.611 | 0.891 | 0.673 | 0.474
2 | HCC-827 | 0.224 | 0.214 | 0.17 | 0.175 | 0.198 | 0.191 | 0.172 | 0.224 | 0.192 | 0.987 | 1 | 0.93 | 1.01 | 1.12 | 1.13 | 0.866 | 1.01 | 1.04
3 | NCI-H2347 | 0.955 | 0.874 | 0.842 | 0.959 | 0.961 | 0.776 | 0.986 | 1.01 | 0.838 | 1.17 | 0.873 | 0.94 | 1.11 | 0.476 | 0.803 | 0.382 | 0.456 | 0.678
4 | PC-14 | 0.329 | 0.282 | 0.264 | 0.271 | 0.318 | 0.264 | 0.336 | 0.334 | 0.339 | 0.89 | 0.828 | 0.833 | 0.941 | 0.729 | 0.695 | 0.84 | 0.72 | 0.858
5 | NCI-H1651 | 0.707 | 0.706 | 0.693 | 0.746 | 0.704 | 0.706 | 0.699 | 0.921 | 0.786 | 0.86 | 0.785 | 0.779 | 0.904 | 0.607 | 0.538 | 0.516 | 0.562 | 0.51
6 | HARA | 0.409 | 0.466 | 0.248 | 0.244 | 0.698 | 0.668 | 0.77 | 0.742 | 0.804 | 0.73 | 0.681 | 0.569 | 0.697 | 0.372 | 0.366 | 0.405 | 0.389 | 0.461
7 | NCI-H1650 | 0.894 | 0.679 | 0.656 | 0.402 | 0.807 | – | 0.667 | 0.723 | 0.735 | – | – | – | – | 0.592 | – | 0.516 | 0.495 | 0.517
8 | NCI-H1395 | 1.17 | 0.86 | 0.885 | 0.988 | 0.925 | 1.03 | 1.04 | 1.08 | 0.959 | 0.988 | 0.719 | 1.15 | 1.1 | 0.61 | 0.566 | 0.609 | 0.646 | 0.703
9 | LU99A | 0.808 | 0.545 | 0.48 | 0.342 | 1.03 | 1.2 | 0.94 | 1.03 | 0.883 | 0.392 | 0.306 | 0.291 | 0.307 | 0.348 | 0.327 | 0.309 | 0.386 | 0.352
10 | NCI-H1355 | 0.908 | 0.831 | 0.711 | 0.654 | 1.07 | 1.01 | 1.04 | 1.09 | 0.962 | 0.816 | 0.758 | 0.613 | 0.868 | 0.47 | 0.475 | 0.406 | 0.502 | 0.485
11 | HCC-78 | 0.826 | 0.476 | 0.186 | 0.186 | 0.662 | 0.785 | 0.63 | 0.913 | 0.916 | 0.321 | 0.196 | 0.23 | 0.257 | 0.182 | 0.198 | 0.174 | 0.207 | 0.182
12 | NCI-H1563 | 1.1 | 0.921 | 0.755 | 0.723 | 0.9 | 0.991 | 1.08 | 0.923 | 0.951 | 0.943 | 0.891 | 0.913 | 0.85 | 0.65 | 0.645 | 0.68 | 0.64 | 0.678
13 | HCC-15 | 0.839 | 0.743 | 0.746 | 0.739 | 0.849 | 0.874 | 0.723 | 0.947 | 0.886 | 0.896 | 0.757 | 0.829 | 0.937 | 0.786 | 0.729 | 0.653 | 0.848 | 0.747
14 | EKVX | 0.184 | 0.162 | 0.137 | 0.133 | 0.201 | 0.21 | 0.225 | 0.204 | 0.246 | 0.837 | 0.672 | 0.581 | 0.666 | 0.483 | 0.445 | 0.462 | 0.472 | 0.506
15 | NCI-H2087 | 1.09 | 0.958 | 0.88 | 0.945 | 1.23 | 0.923 | 1.23 | 1.38 | 1.1 | 1.09 | 1.07 | 0.928 | 0.851 | 0.695 | 0.794 | 0.705 | 0.988 | 0.843
16 | LK-2 | – | 1.16 | 0.584 | 0.713 | 0.784 | 1.19 | 0.78 | 1.04 | 0.901 | 1.01 | 1.13 | 0.818 | 1.23 | 0.576 | 0.513 | 0.555 | 0.621 | 0.537
17 | NCI-H1437 | 0.626 | 0.445 | 0.369 | 0.496 | 0.719 | 0.78 | 0.756 | 0.9 | 0.781 | 0.722 | 0.561 | 0.581 | 0.717 | 0.441 | 0.441 | 0.467 | 0.502 | 0.406
18 | COR-L23 | 1.12 | 0.957 | 0.994 | 0.423 | 0.931 | 0.929 | 1.01 | 0.996 | 1.08 | 0.721 | 0.711 | 0.563 | 0.412 | 0.701 | 0.864 | 0.732 | 0.836 | 0.854
